Results published in patent US20030195170A1, “Novel polymorphs and pseudopolymorphs of risedronate sodium” (priority 2002, published 2003).

What was measured:
Format in all cases: physicochemical
[1] = Physical stability of crystal forms at high relative humidity (one week storage)
Excerpt: X-ray diffraction data described herein was obtained by the powder diffraction method. X-Ray powder diffraction data were obtained using methods known in the art with a SCINTAG powder X-Ray diffractometer model X'TRA equipped with a solid state detector. Copper radiation of 1.5418 Å was used. A round aluminum sample holder with a round zero background quartz plate, with cavity of 25 mm×0.5 mm.
Thermogravimetric analysis (TGA) is a technique of thermal analysis well known in the art and measures the change in weight of a sample as a function of temperature. The technique is particularly well suited for measurement of, for example, decomposition and desolvation. TGA results reported herein were obtained using a Mettler TG50. Sample size was between about 6 and about 15 mg. Samples were analyzed at a heating rate of 10° C./min from 25° C. to 250 C. The oven was purged with nitrogen gas at a flow rate of 40 ml/min. Standard alumina crucibles covered by lids with one hole were used.
(§1) The stability of crystalline forms of risedronate sodium against transformation to form A is measured by exposing a sample to an atmosphere having a percent relative humidity (RH or %RH) of at least about 50% at a temperature greater than room temperature for a period of time. It is convenient to evaluate the stability of a crystalline form of risedronate sodium against transformation to form A by exposing a sample to an atmosphere having RH of about 75% at a temperature of 40° C. for a period of at least 3 months. The experience of the skilled artisan teaches that a pharmaceutical that is stable under these conditions will be stable for at least 2 years at room temperature.

[2] = Stability test of risedronate tablets at 40° C., 75% RH (crystal form by X-Ray powder diffraction); conditions: 5 months, stressed conditions of 40° C. and 75% RH
Excerpt: The crystal form (detected from X-Ray powder diffraction data) of Risedronate active ingredient in the tablet are shown in the following table.

[3] = Stability of form B against transformation to form A at 40° C. / 75% RH
Experimental: X-ray diffraction analysis can be used to detect and quantify one crystalline form of risedronate sodium in another.
as §1

[4] = Physical stability of crystal forms at high relative humidity (one week storage); conditions: 80%-100% RH at room temperature for at least one week; 'not substantially' = not more than about 20%
[5] = relative humidity 80%, one week storage, listed as D (MS-273), monosodium salt

With `O=P([O-])(O)C(O)(Cc1cccnc1)P(=O)(O)O.[Na+]` [Form A, 1-hydroxy-2(3-pyridinyl)ethylidene bis phosphonic acid monosodium salt, reference compound] the “TGA Weight Loss (%)” value ([1]; relative humidity 80%, one week storage, listed as A (LB-91), monosodium salt) was 13.6%.

For `O=P([O-])(O)C(O)(Cc1cccnc1)P(=O)(O)O.[Na+]` [Form B, 1-hydroxy-2(3-pyridinyl)ethylidene bis phosphonic acid monosodium salt], the “Conversion to form A hemipentahydrate” value ([1]; 75% to 100% RH for one week or more, 'not substantially' = not more than about 20%) was “does not substantially convert”, the “TGA Weight Loss (%)” value ([1]; relative humidity 80%, one week storage, listed as B (LB-89), monosodium salt) was 6.5% and the “Stability of form B in tablets” value [2] was “stable”. For the same compound, the “Part of form B that transforms to form A” value ([3]; RH of 75% at 40° C. for at least three months) was “less than 20%” and the “Conversion to form A hemipentahydrate” value ([3]; storage at 40° C. and 75% RH for 6 months, 'not substantially' = not more than about 20%) was “does not substantially convert”.

For `O=P([O-])(O)C(O)(Cc1cccnc1)P(=O)(O)O.[Na+]` [Form C, 1-hydroxy-2(3-pyridinyl)ethylidene bis phosphonic acid monosodium salt], the “TGA Weight Loss (%)” value ([1]; relative humidity 80%, one week storage, listed as C (LB-87), monosodium salt) was 16.0%, the Resulting form ([1]; relative humidity 80%, one week storage, listed as form C, monosodium salt) was “a mixture of form C and form H” and the “Conversion to form A” value [4] was “does not substantially convert”.

With `O=P([O-])(O)C(O)(Cc1cccnc1)P(=O)(O)O.[Na+]` [Form D, 1-hydroxy-2(3-pyridinyl)ethylidene bis phosphonic acid monosodium salt] the Resulting form [1, 5] was “D > B”, the “TGA Weight Loss (%)” value [1, 5] was 1.1% and the Resulting form ([1]; relative humidity 80%, one week storage, listed as form D, monosodium salt) was “a mixture of form D and form B”. The Resulting form ([1]; relative humidity 80-100%, one week storage, monosodium salt) was “form B”.

With `O=P([O-])(O)C(O)(Cc1cccnc1)P(=O)(O)O.[Na+]` [Form E, 1-hydroxy-2(3-pyridinyl)ethylidene bis phosphonic acid monosodium salt] the “TGA Weight Loss (%)” value ([1]; relative humidity 80%, one week storage, listed as E (MS-277), monosodium salt) was 14.0% and the Resulting form ([1]; relative humidity 80%, one week storage, listed as form E, monosodium salt) was “form A with a small quantity of form D”.

In the case of `O=P([O-])(O)C(O)(Cc1cccnc1)P(=O)(O)O.[Na+]` [Form F, 1-hydroxy-2(3-pyridinyl)ethylidene bis phosphonic acid monosodium salt], the “TGA Weight Loss (%)” value ([1]; relative humidity 20-60%, one week storage) is reported as 4-6%, the Resulting form ([1]; relative humidity 80%, one week storage, listed as form F, monosodium salt) is reported as “a mixture of form BB” and the “TGA Weight Loss (%)” value ([1]; relative humidity 80-100%, one week storage) is reported as 11.3-12.3%. For the same compound, the Resulting form ([1]; relative humidity 80-100%, one week storage, listed as F (LB-104 160 C. 8 hr), monosodium salt) was “BB > A”, the Resulting form ([1]; relative humidity 80-100%, one week storage, listed as form F, monosodium salt) was “form BB” and the Resulting form ([1]; relative humidity 100%, one week storage, listed as form F, monosodium salt) was “form BB”. The “Rearrangement to the hemipentahydrate form” value ([1]; up to 100% relative humidity, one week storage) was “does not substantially rearrange”.

For `O=P([O-])(O)C(O)(Cc1cccnc1)P(=O)(O)O.[Na+]` [Form G, 1-hydroxy-2(3-pyridinyl)ethylidene bis phosphonic acid monosodium salt], the “TGA Weight Loss (%)” value ([1]; relative humidity 20-80%, one week storage) was 9.4-10.2%, the “TGA Weight Loss (%)” value ([1]; relative humidity 100%, one week storage) was 12.6% and the Resulting form ([1]; relative humidity 100%, one week storage, listed as G (MS-257 160 C. 8 hr), monosodium salt) was “G + A”. The Resulting form ([1]; relative humidity 100%, one week storage, listed as form G, monosodium salt) was “a mixture of form G and form A”.
